Counter-ions that a name gives are not always drawn.
Target: catalytic domain of human PARP14 (Homo sapiens (Human), UniProt Q460N5)
Assay: Enzymatic assay for inhibition of PARP14 (DELFIA, auto-modification with biotin-NAD)
Format: biochemical
Conditions: auto-modification of PARP14 by biotin-NAD, 50 nM PARP14, 3 μM biotin-NAD
In short: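 His-TEV-tagged PARP14 catalytic domain (50 nM) preincubated with compound 30 min at 25 °C, then auto-modified with 3 μM biotin-NAD for 3 h at 25 °C in HEPES pH 8 buffer with DTT. IC50 from 4-parameter fit, rucaparib and DMSO as controls.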

Chain of catalytic domain of human PARP14 (Q460N5 1611-1801): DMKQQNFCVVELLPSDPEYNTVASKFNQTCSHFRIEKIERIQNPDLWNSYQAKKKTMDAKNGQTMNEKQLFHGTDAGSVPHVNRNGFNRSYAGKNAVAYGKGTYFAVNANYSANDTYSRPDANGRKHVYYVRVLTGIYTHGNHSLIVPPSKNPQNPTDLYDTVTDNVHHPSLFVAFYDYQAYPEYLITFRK

Compound | IC50
O=c1[nH]c(CS[C@H]2CC[C@H](O)CC2)nc2cc(OCC3CC3)cc(F)c12 [Example 235, 7-(Cyclopropylmethoxy)-5-fluoro-2-(((trans-4-hydroxycyclohexyl)thio)methyl)quinazolin-4(3H)-one] | < 1000 nM
Cc1ccc(F)c2c(=O)[nH]c(CSC3CCOCC3)nc12 [Example 8] | < 1000 nM
O=c1[nH]c(CSC2CCNCC2)nc2cc(NC3CCCC3)cc(Cl)c12 [Example 206, 5-Chloro-7-(cyclopentylamino)-2-((piperidin-4-ylthio)methyl)quinazolin-4(3H)-one Hydrochloride] | < 1000 nM
Cc1cccc2c(=O)[nH]c(CSC3COC3)nc12 [Example 39, 8-Methyl-2-((oxetan-3-ylthio)methyl)quinazolin-4(3H)-one] | > 10000 nM
CNC(=O)CN1CCC(SCc2nc3cc(NC4CCCC4)cc(F)c3c(=O)[nH]2)CC1 [Example 283, 2-(4-(((7-(Cyclopentylamino)-5-fluoro-4-oxo-3,4-dihydroquinazolin-2-yl)methyl)thio)piperidin-1-yl)-N-methylacetamide hydrochloride] | < 1000 nM
Cc1cccc2c(=O)[nH]c(CSC3CCN(Cc4cncn4Cc4ccccc4)CC3)nc12 [Example 153, 2-(((1-((1-Benzyl-1H-imidazol-5-yl)methyl)piperidin-4-yl)thio)methyl)-8-methylquinazolin-4(3H)-one trifluoroacetate] | < 1000 nM

Continued, values first:

IC50 | Compound
< 1000 nM | CC(=O)N[C@H]1CC[C@H](SCc2nc3cc(OCC4CC4)cc(F)c3c(=O)[nH]2)CC1 [Example 330, N-((trans)-4-(((7-(Cyclopropylmethoxy)-5-fluoro-4-oxo-3,4-dihydroquinazolin-2-yl)methyl)thio)cyclohexyl)acetamide]
< 1000 nM | CNc1cc2nc(CSC3CCOCC3)[nH]c(=O)c2c(F)c1F [Example 420]
< 1000 nM | CC1(C)CC(COc2cc(F)c3c(=O)[nH]c(CS[C@H]4CC[C@H](O)CC4)nc3c2)CO1 (stereo partly shown) [Example 355]
< 1000 nM | CS(=O)(=O)N1CCC[C@@H](Nc2ccc3c(=O)[nH]c(CSC4CCOCC4)nc3c2)C1 [Example 193, (R)-7-((1-(methylsulfonyl)piperidin-3-yl)amino)-2-(((tetrahydro-2H-pyran-4-yl)thio)methyl)quinazolin-4(3H)-one]
< 1000 nM | O=c1[nH]c(CSC2CCOCC2)nc2cc(NCCN3CCOCC3)cc(F)c12 [Example 287, 5-Fluoro-7-((2-morpholinoethyl)amino)-2-(((tetrahydro-2H-pyran-4-yl)thio)methyl)quinazolin-4(3H)-one]
< 1000 nM | O=C(N[C@H]1CC[C@H](SCc2nc3cc(OCC4CC4)cc(F)c3c(=O)[nH]2)CC1)C1CC1 [Example 395]
< 1000 nM | CN1CC[C@H](COc2cc(F)c3c(=O)[nH]c(CS[C@H]4CC[C@H](O)CC4)nc3c2)[C@@H](F)C1 (relative stereo) [Example 334, 5-Fluoro-7-(((trans)-3-fluoro-1-methylpiperidin-4-yl)methoxy)-2-((((trans)-4-hydroxycyclohexyl)thio)methyl)quinazolin-4(3H)-one trifluoroacetic acid]
1000 to 10000 nM | NC[C@H]1CC[C@@H](SCc2nc3cc(NC4CCCC4)cc(F)c3c(=O)[nH]2)CO1 (relative stereo) [Example 242, 2-((((cis)-6-(Aminomethyl)tetrahydro-2H-pyran-3-yl)thio)methyl)-7-(cyclopentylamino)-5-fluoroquinazolin-4(3H)-one bis Hydrochloride]

System: LL/2 cells
Assay: Inhibition of tumor growth and survival in the LL/2 murine syngeneic model
Format: in vivo, female C57BL/6 mice
Conditions: LL/2 subcutaneous right flank, 500 mg/kg PO BID*21 days, treatment group versus vehicle group, study terminated D21
Excerpt: For the LL/2 study (FIGS. 4A-4C), female C57BL/6 mice were inoculated subcutaneously in the right flank with 5×10^5 LL/2 cells (ATCC, CRL-1642™) for tumor development. Five days after tumor inoculation, 16 mice with tumor size ranging from 37-72 mm^3 (average tumor size 51 mm^3) were selected and assigned into 2 groups using stratified randomization with 8 mice in each group based upon their tumor volumes. The treatments were started from the next day post randomization (defined as randomization day DO) and were treated with vehicle (0.5% methylcellulose +0.2% Tween 80), or the compound of Example 235 (500 mg/kg PO BID*21 days). The tumor sizes were measured three times per week during the treatment. The entire study was terminated on D21.
Statistical significance, calculated using 2way ANOVA multiple comparisons in which each treatment group was compared to vehicle control, is indicated by an asterisk. Statistics were performed on groups with less than 20% animal loss (D20 for 4T1, D17 for LL/2). Survival benefit was determined for the LL/2 study (FIG. 4B). Individual mice were euthanized once they reached the termination endpoint (TV>2000 mm3). The time from treatment initiation to termination was deemed as its survival time and plotted in a Kaplan-Meier survival curve format. Mice remaining at study end date of 21 days were euthanized at day 21 after treatment initiation. […]

Compound | Tumor growth inhibition
O=c1[nH]c(CS[C@H]2CC[C@H](O)CC2)nc2cc(OCC3CC3)cc(F)c12 [Example 235, 7-(Cyclopropylmethoxy)-5-fluoro-2-(((trans-4-hydroxycyclohexyl)thio)methyl)quinazolin-4(3H)-one] | 63%

System: 4T1 cells
Assay: Inhibition of tumor growth in the 4T1 murine syngeneic model
Format: in vivo, female BALB/c mice
Conditions: 4T1 orthotopic in mammary fat pad, 500 mg/kg PO BID*21 days, treatment group versus vehicle group, study terminated D20
Excerpt: FIGS. 3A and 4A illustrate that a PARP14 inhibitor (Example 235) reduces tumor growth in the murine syngeneic models (A) 4T1 and (B) LL/2. For the 4T1 study (FIGS. 3A and 3B), female BALB/c mice were inoculated orthotopically in the mammary fat pad with 1×10^5 4T1 cells (ATCC, CRL-2539™) for tumor development. Seven days after tumor inoculation, 16 mice with tumor size ranging from 41-78 mm^3 (average tumor size 56 mm^3) were selected and assigned into 2 groups using stratified randomization with 8 mice in each group based upon their tumor volumes. The treatments were started from the next day post randomization (defined as randomization day DO) and were treated with vehicle (0.5% methylcellulose +0.2% Tween 80), or the compound of Example 235 (500 mg/kg PO BID*21 days). The tumor sizes were measured three times per week during the treatment. The entire study was terminated on D20.
Statistical significance, calculated using 2way ANOVA multiple comparisons in which each treatment group was compared to vehicle control, is indicated by an asterisk. Statistics were performed on groups with less than 20% animal loss (D20 for 4T1, D17 for LL/2). Survival benefit was determined for the LL/2 study (FIG. 4B). Individual mice were euthanized once they reached the termination endpoint (TV>2000 mm3). […]

Compound | Tumor growth inhibition
O=c1[nH]c(CS[C@H]2CC[C@H](O)CC2)nc2cc(OCC3CC3)cc(F)c12 [Example 235, 7-(Cyclopropylmethoxy)-5-fluoro-2-(((trans-4-hydroxycyclohexyl)thio)methyl)quinazolin-4(3H)-one] | 31%

From US10562891B2, “Quinazolinones as PARP14 inhibitors” (Ribon Therapeutics Inc., priority 2017, dated 2020)
